Source: patent US10584115B2, “Substituted pyridine and pyrazine BMI-1 inhibitors” (PTC Therapeutics, Inc., priority 2013, dated 2020)

test system: Bmi-1 protein; assay: Sandwich ELISA Assay (Bmi-1 protein level in HT-1080 cells after compound treatment); assay type: cell-based; details: Table 1, Bmi-1 sandwich ELISA, read-out: ELISA EC50 value for Bmi-1 protein
Protocol: Cell Seeding and Compound Treatment (Day 1):
HT-1080 cells were seeded at 8000 cells/well (50 μL) in 96-well tissue culture plates. After the cells became adherent (3-4 hours), 2× diluted stocks of test compounds in 50 μL DMEM containing 1% DMSO (final DMSO concentration was 0.5%) were added and the plates were incubated at 37° C. under 5% CO2 for 40-48 hours.
ELISA Plate First Antibody Preparation (Day 2):
The First Antibody (Millipore Mouse, monoclonal to mouse Bmi-1, clone F6, catalog #05-637) diluted to […] in PBS was added (100 μL) to each well of a Nunc MaxiSorp 96-well ELISA plate. The plate was covered with a plate seal and allowed to stand overnight.
Cell Lysate Preparation (Day 3):
Fresh Lysis buffer (1×) was prepared on the day of the assay as follows: 1 mM EDTA, 150 mM NaCl, 0.5% Triton-X 100, 10 mM NaF, 20 mM B-Glycerophosphate, 1 mM DTT (in PBS, pH 7.2-7.4) and HALT protease inhibitor cocktail (lx) (Pierce #78410).
A standard curve was prepared at the following Bmi-1 concentrations: 8000, 4000, 2000, 1000, 500, 250, 125 and 0 pg/mL. The Bmi-1 Recombinant Protein Standard (Novus Biologicals PCGF4 Recombinant Protein (P01), catalog # H00000648-P01) used to prepare the standard curve was stored at −80° C. On first thaw, the Recombinant Protein Standard was diluted to 10 μg/L in Blocking Buffer (1% BSA in PBS; BSA: Fisher Scientific Catalog #1600-100). Aliquots were taken and refrozen at −80° C. The aliquots may be kept at 4° C. and reused after first thaw, but only within 1-2 weeks. The Recombinant Protein Standard contains a GST-fusion tag that appears at approximately 70 Kda on Western Blot.
The prepared ELISA plate was washed 3× with Wash Buffer (0.05% Tween-20 in PBS). The final wash was removed from the plate and the plate was blotted dry. Blocking Buffer (300 μL) (1% BSA in PBS) was added to each well. The plate was covered with a plate seal and incubated at room temperature for 1 hour. The blocked plate was washed 3× with Wash Buffer, then the final wash was removed and the plate was blotted dry. The previously prepared samples and standards were added ([…]) and the plate was covered with a plate seal and incubated at 4° C. overnight.
The prepared ELISA plate was removed from incubation and allowed to stand at room temperature for 30 minutes, then washed and blotted dry. The Second Antibody (Cell Signaling Rabbit anti-Bmi-1, Cat #2830) diluted to 1:600 in Blocking Buffer was added (100 μL) to each well, except as needed for background control wells. The plate was covered with a plate seal and incubated for 1.5 hrs at room temperature.
The ELISA plate was washed and blotted dry as previously described. The Third Antibody (Cell Signaling HRP conjugated anti-rabbit IgG (CellSignaling, Cat #:7074) diluted to 1:300 in Blocking Buffer was added (100 μL) to each well, except as needed for background control wells. The plate was incubated for 1 hr at room temperature.
The plate was washed and blotted dry, then a previously prepared TMB substrate (TMB substrate kit, Pierce catalog #34021) (prepared by mixing kit reagents 1:1) (100 μL) was added per well. The plate was incubated for 20-30 minutes at room temperature in the dark, then Stop Solution (2 M sulfuric acid in water) (50 μL) was added per well. The plates were read at OD450 (experimental) and OD570 (reference).

`COc1ccc2nc(C(F)(F)F)c(-c3cncc(Nc4ccc(OC(F)(F)F)cc4)n3)n2c1` [Cpd 45, 6-[6-methoxy-2-(trifluoromethyl)imidazo[1,2-a]pyridin-3-yl]-N-[4-(trifluoromethoxy)phenyl]pyrazin-2-amine] and `COc1ccc2nc(C(F)(F)F)c(-c3cncc(Nc4ccc(C(F)(F)F)cc4)n3)n2c1` [Cpd 46, 6-[6-methoxy-2-(trifluoromethyl)imidazo[1,2-a]pyridin-3-yl]-N-[4-(trifluoromethyl)phenyl]pyrazin-2-amine] fall in the same range of EC50: 0.01 to 0.1 µM for the first, 0.01 to 0.1 µM for the second.

`COc1ccc(Nc2cncc(-c3c(C(F)(F)F)nc4ccc(OC)cn34)n2)cc1` [Cpd 47, N-(4-methoxyphenyl)-6-[6-methoxy-2-(trifluoromethyl)imidazo[1,2-a]pyridin-3-yl]pyrazin-2-amine] and `COc1ccc2nc(C(F)(F)F)c(-c3cncc(Nc4ccc(OC(F)F)cc4)n3)n2c1` [Cpd 48, N-[4-(difluoromethoxy)phenyl]-6-[6-methoxy-2-(trifluoromethyl)imidazo[1,2-a]pyridin-3-yl]pyrazin-2-amine] fall in the same range of EC50: 0.001 to 0.01 µM for the first, 0.001 to 0.01 µM for the second.

First: COc1ccc2nc(C(F)(F)F)c(-c3cncc(Nc4ccc(C#N)cc4)n3)n2c1 [Cpd 49, 4-({6-[6-methoxy-2-(trifluoromethyl)imidazo[1,2-a]pyridin-3-yl]pyrazin-2-yl}amino)benzonitrile]
Second: COc1ccc(Nc2cncc(-c3c(C(F)(F)F)nc4ccc(F)cn34)n2)cc1 [Cpd 57, 6-[6-fluoro-2-(trifluoromethyl)imidazo[1,2-a]pyridin-3-yl]-N-(4-methoxyphenyl)pyrazin-2-amine]
The EC50 of the first is higher: 0.1 to 3 µM for the first, under 0.001 µM for the second.

Compared with `N#Cc1ccc(Nc2cccc(-c3c(C(F)(F)F)nc4ccccn34)n2)cc1` [Cpd 50, 4-({6-[2-(trifluoromethyl)imidazo[1,2-a]pyridin-3-yl]pyridin-2-yl}amino)benzonitrile], `FC(F)(F)c1ccc(Nc2cccc(-c3c(C(F)(F)F)nc4ccccn34)n2)cn1` [Cpd 71, 6-[2-(trifluoromethyl)imidazo[1,2-a]pyridin-3-yl]-N-[6-(trifluoromethyl)pyridin-3-yl]pyridin-2-amine] is lower in EC50: 0.01 to 0.1 µM for the first, 0.001 to 0.01 µM for the second. The second is the more potent here.

First: Fc1ccc2nc(C(F)(F)F)c(-c3cncc(Nc4ccc(OC(F)(F)F)cc4)n3)n2c1 [Cpd 55, 6-[6-fluoro-2-(trifluoromethyl)imidazo[1,2-a]pyridin-3-yl]-N-[4-(trifluoromethoxy)phenyl]pyrazin-2-amine]
Second: Fc1ccc2nc(C(F)(F)F)c(-c3cncc(Nc4ccc(C(F)(F)F)cc4)n3)n2c1 [Cpd 58, 6-[6-fluoro-2-(trifluoromethyl)imidazo[1,2-a]pyridin-3-yl]-N-[4-(trifluoromethyl)phenyl]pyrazin-2-amine]
The EC50 of the first is higher: 0.01 to 0.1 µM for the first, 0.001 to 0.01 µM for the second. The second is the more potent here.

First: Fc1ccc2nc(C(F)(F)F)c(-c3cncc(Nc4ccc(OC(F)F)cc4)n3)n2c1 [Cpd 56, N-[4-(difluoromethoxy)phenyl]-6-[6-fluoro-2-(trifluoromethyl)imidazo[1,2-a]pyridin-3-yl]pyrazin-2-amine]
Second: FC(F)Oc1ccc(Nc2cncc(-c3c(C(F)(F)F)nc4ncccn34)n2)cc1 [Cpd 109, N-[4-(difluoromethoxy)phenyl]-6-[2-(trifluoromethyl)imidazo[1,2-a]pyrimidin-3-yl]pyrazin-2-amine]
The EC50 of the first is lower: 0.001 to 0.01 µM for the first, 0.01 to 0.1 µM for the second.

Compared with `O=[N+]([O-])c1ccc(Nc2cncc(-c3c(C(F)(F)F)nc4ccccn34)n2)cc1` [Cpd 59, N-(4-nitrophenyl)-6-[2-(trifluoromethyl)imidazo[1,2-a]pyridin-3-yl]pyrazin-2-amine], `Nc1ccc(Nc2cncc(-c3c(C(F)(F)F)nc4ccccn34)n2)cc1` [Cpd 60, N-{6-[2-(trifluoromethyl)imidazo[1,2-a]pyridin-3-yl]pyrazin-2-yl}benzene-1,4-diamine] is lower in EC50: 0.1 to 3 µM for the first, 0.01 to 0.1 µM for the second. The second is the more potent here.

`FC(F)(F)c1ccc(Nc2cncc(-c3c(C(F)(F)F)nc4ccccn34)n2)cn1` [Cpd 70, 6-[2-(trifluoromethyl)imidazo[1,2-a]pyridin-3-yl]-N-[6-(trifluoromethyl)pyridin-3-yl]pyrazin-2-amine] and `FC(F)(F)c1ccc(Nc2cncc(-c3c(C(F)(F)F)nc4ccccn34)n2)nc1` [Cpd 190, 6-[2-(trifluoromethyl)imidazo[1,2-a]pyridin-3-yl]-N-[5-(trifluoromethyl)pyridin-2-yl]pyrazin-2-amine] fall in the same range of EC50: 0.01 to 0.1 µM for the first, 0.01 to 0.1 µM for the second.

`FC(F)(F)Oc1ccc(Nc2cncc(-c3c(C(F)(F)F)nc4ncccn34)n2)cc1` [Cpd 100, N-[4-(trifluoromethoxy)phenyl]-6-[2-(trifluoromethyl)imidazo[1,2-a]pyrimidin-3-yl]pyrazin-2-amine] and `COc1cc(Nc2ccc(C(F)(F)F)cc2)nc(-c2c(C(F)(F)F)nc3ccccn23)c1` [Cpd 107, 4-methoxy-6-[2-(trifluoromethyl)imidazo[1,2-a]pyridin-3-yl]-N-[4-(trifluoromethyl)phenyl]pyridin-2-amine] fall in the same range of EC50: 0.1 to 3 µM for the first, 0.1 to 3 µM for the second.

Compared with `COc1cc(Nc2ccc(C(F)(F)F)cc2)nc(-c2c(C(=O)O)nc3ccccn23)c1` [Cpd 124, 3-(4-methoxy-6-{[4-(trifluoromethyl)phenyl]amino}pyridin-2-yl)imidazo[1,2-a]pyridine-2-carboxylic acid], `COc1cc(Nc2ccc(OC(F)F)cc2)nc(-c2c(C(F)(F)F)nc3ccccn23)c1` [Cpd 125, N-[4-(difluoromethoxy)phenyl]-4-methoxy-6-[2-(trifluoromethyl)imidazo[1,2-a]pyridin-3-yl]pyridin-2-amine] is higher in EC50: 0.01 to 0.1 µM for the first, 0.1 to 3 µM for the second.

`Cc1nc2ccccc2n1-c1cc(C#N)cc(Nc2ccc(OC(F)F)cc2)n1` [Cpd 135, 2-{[4-(difluoromethoxy)phenyl]amino}-6-(2-methyl-1H-benzimidazol-1-yl)pyridine-4-carbonitrile] and `Cc1nc2ccccc2n1-c1cc(C#N)cc(Nc2ccc(OC(F)(F)F)cc2)n1` [Cpd 136, 2-(2-methyl-1H-benzimidazol-1-yl)-6-{[4-(trifluoromethoxy)phenyl]amino}pyridine-4-carbonitrile] fall in the same range of EC50: 0.01 to 0.1 µM for the first, 0.01 to 0.1 µM for the second.

`COc1ncc(Nc2cncc(-c3c(C(F)(F)F)nc4ccccn34)n2)cn1` [Cpd 201, 2-methoxy-N-{6-[2-(trifluoromethyl)imidazo[1,2-a]pyridin-3-yl]pyrazin-2-yl}pyrimidin-5-amine] was tested, and the EC50 was 0.001 to 0.01 µM.

same assay, conditions: read-out: ELISA EC50 value for Bmi-1 protein, Table 1, Bmi-1 sandwich ELISA

`FC(F)(F)c1ccc(Nc2cccc(-c3c(C(F)(F)F)nc4ncccn34)n2)cc1` [Cpd 64, 6-[2-(trifluoromethyl)imidazo[1,2-a]pyrimidin-3-yl]-N-[4-(trifluoromethyl)phenyl]pyridin-2-amine] and `FC(F)(F)c1ccc(Nc2cncc(-c3c(C(F)(F)F)nc4ncccn34)n2)cc1` [Cpd 67, 6-[2-(trifluoromethyl)imidazo[1,2-a]pyrimidin-3-yl]-N-[4-(trifluoromethyl)phenyl]pyrazin-2-amine] fall in the same range of EC50: 0.01 to 0.1 µM for the first, 0.01 to 0.1 µM for the second.

`Cc1nc2ccccc2n1-c1cc(C#N)cc(Nc2ccc(C(F)(F)F)cc2)n1` [Cpd 132, 2-(2-methyl-1H-benzimidazol-1-yl)-6-{[4-(trifluoromethyl)phenyl]amino}pyridine-4-carbonitrile] and `NC(=O)c1cc(Nc2ccc(C(F)(F)F)cc2)nc(-c2c(C(F)(F)F)nc3ccccn23)c1` [Cpd 189, 2-[2-(trifluoromethyl)imidazo[1,2-a]pyridin-3-yl]-6-{[4-(trifluoromethyl)phenyl]amino}pyridine-4-carboxamide] fall in the same range of EC50: 0.01 to 0.1 µM for the first, 0.01 to 0.1 µM for the second.
